From patent publication US8268635B2, “Methods of identifying agents that selectively activate p38 and/or NKkB signaling” (priority 2006, dated 2012)
Where no end group is shown, it is not given here.

Columns and labels:
ERK1/ERK2 [1] = assay: ERK1/ERK2 dual phosphorylation in HUVEC (western blot); format: cell-based, human; conditions: 15 min; TNF 100 U/ml, TNF70-80 10 μM
Protocol: (§1) The level of myelin basic protein phosphorylation was quantitated by an Instant Imager.
(§2) Western blot analysis was conducted as described previously (Hii, C. S., Huang, Z. H., Bilney, A., Costabile, M., Murray, A. W., Rathjen, D. A., Der, C. J., and Ferrante, A. (1998) J. Biol. Chem. 273: 19277-19282). Briefly, equal amounts of denatured protein from each lysate were separated by 12% SDS polyacrylamide gel electrophoresis (PAGE). The proteins were electrophoretically transferred to nitrocellulose membranes (Schleicher and Schuell, Keene, N. H., USA)(3 h at 40V). […] Immune complexes were visualised by enhanced chemiluminescence (Hii, C. S., Huang, Z. H., Bilney, A., Costabile, M., Murray, A. W., Rathjen, D. A., Der, C. J., and Ferrante, A. (1998) J. Biol. Chem. 273: 19277-19282).

JNK = JNK activation in neutrophils in suspension; format: cell-based, human; conditions: 15 min; TNF 100 U/ml, TNF70-80 10 μM, anisomycin 2.5 μg/ml
Protocol: (§3) The cells were lysed and the lysate assessed by western blot analysis for the level of dual-phosphorylated ERK1/ERK2 (top panel) and ERK2 protein (bottom panel). […] The level of myelin basic protein phosphorylation was quantitated by an Instant Imager.
(§4) Neutrophils were prepared from peripheral blood of healthy donors by a rapid single-step technique (Kumaratilake, L. M., Rathjen, D. A., Mack, P., Widmer, F., Prasertsiriroj, V., and Ferrante, A. (1995) J. Clin. Invest. 95: 2315-2323) using Hypaque-Ficoll and according to the institution's guidelines on human ethics. […]
(§5) KHS (hereon referred to as “GCKR”) activity was assayed as described previously using myelin basic protein as a substrate (Shi, C. S., Leonardi, A., Kyriakis, J., Siebenlist, U., and Kerhl, J. H. (1999) J. Immunol. 163: 3279-3285). ASK-1 activation was determined in immunoprecipitates of ASK-1 by autophosphorylation (Kyriakis, J. M., and Auruch, J. (2001) Physiol. Rev. 81: 807-869). p38 and ERK activities were determined as described using myelin basic protein as a substrate (Hii, C. S., Huang, Z. H., Bilney, A., Costabile, M., Murray, A. W., Rathjen, D. A., Der, C. J., and Ferrante, A. (1998) J. Biol. Chem. 273: 19277-19282). […]

ERK1/ERK2 [2] = assay: ERK1/ERK2 activation in neutrophils in suspension; format: cell-based, human; conditions: TNF, TNF70-80 15 min; PMA 100 nM 5 min
Protocol: as §3, §4, §5

p38 = p38 kinase activity in human neutrophils; format: cell-based; conditions: 5 min; TNF 100 or 1000 U/ml, TNF70-80 10-50 μM
Protocol: as §3
Neutrophils were prepared from peripheral blood of healthy donors by a rapid single-step technique (Kumaratilake, L. M., Rathjen, D. A., Mack, P., Widmer, F., Prasertsiriroj, V., and Ferrante, A. (1995) J. Clin. Invest. 95: 2315-2323) using Hypaque-Ficoll and according to the institution's guidelines on human ethics. […] These were either used as cells in suspension or as adhered neutrophils by adding the cells to plasma coated plates as previously described (Powell, W., Gravel, S., Halwani, F., Hii, C. S., Huang, Z. H., Tan, A. M., and Ferrante, A. (1997) J. Immunol. 159: 2952-2959).
(§6) KHS (hereon referred to as “GCKR”) activity was assayed as described previously using myelin basic protein as a substrate (Shi, C. S., Leonardi, A., Kyriakis, J., Siebenlist, U., and Kerhl, J. H. (1999) J. Immunol. 163: 3279-3285). ASK-1 activation was determined in immunoprecipitates of ASK-1 by autophosphorylation (Kyriakis, J. M., and Auruch, J. (2001) Physiol. Rev. 81: 807-869). p38 and ERK activities were determined as described using myelin basic protein as a substrate (Hii, C. S., Huang, Z. H., Bilney, A., Costabile, M., Murray, A. W., Rathjen, D. A., Der, C. J., and Ferrante, A. (1998) J. Biol. Chem. 273: 19277-19282). […] A solid phase assay using glutathione-S-transferase (GST)-conjugated-jun (1-79) was employed to assay JNK activity (Hii, C. S., Huang, Z. H., Bilney, A., Costabile, M., Murray, A. W., Rathjen, D. A., Der, C. J., and Ferrante, A. (1998) J. Biol. Chem. 273: 19277-19282). Phosphorylated ASK-1, myelin basic protein and GST-jun (1-79) were fractionated on 8, 16 and 12% SDS polyacrylamide gels, respectively, and the bands were detected and radioactivity determined using an Instant Imager (Packard Instruments, Canberra, Australia).
as §1

NFκB = NFκB pathway activation in human neutrophils (nuclear translocation of NFκB); format: cell-based
Protocol: After cell lysis, nuclear fractions were prepared, nuclear proteins separated by SDS page (12% gel), transferred to nitrocellulose and probed with an anti NFκB p65 antibody (Santa Cruz).
as §2
This pathway, akin to the p38 pathway, is dependent on TRAF-2 and RIP (Kyriakis, J. M., and Auruch, J. (2001) Physiol Rev. 81: 807-869). We measured the nuclear translocation of NFκB as an indicator of the activation of this pathway.

GCKR/GLK = GCKR/GLK activity in adherent neutrophils; format: cell-based, human; conditions: plasma-coated dishes; 15 min; TNF 1000 U/ml, TNF70-80 10 μM
Protocol: (§7) GCKR was immunoprecipitated from cell lysates and activity assayed using myelin basic protein (MBP) as the substrate. […] Activation of ASK-1 was determined by kinase autophosphorylation.
as §6

ASK-1 = ASK-1 autophosphorylation in HEK293T cells; format: cell-based, human; conditions: 3 or 7 min
Protocol: as §7, §6

[3] = test system: mutant receptor peptide M4; assay: Binding of biotinylated TNF70-80 to mutant receptor peptide M4; set-up: species or system human; conditions: 20 μM biotinylated TNF70-80, 18 hrs at 37° C.
Protocol: (§8) 100 μl of 0.7 mM solution of M4 or 1% BSA in PBS for control was coated on plates overnight for 24 hrs at 37° C. Plates were blocked for 6 hrs at 37° C. with 3% BSA in PBS. 100 μl of 20 μM of B-TNF70-80 was added to each well and allowed to incubate for 18 hrs at 37° C. Streptavidin-horseradish peroxidase and TMB H2O2 was added and bound product was detected by measuring absorbance at 450 nm.
as §8, with “Streptvadin-horseradish” for “Streptavidin-horseradish”

macrophage = conditions: previous comparisons; cited from earlier work

With PSTHVLITHTI-OH [TNF70-80] the “dual phosphorylation of the ERKs in HUVEC” value (ERK1/ERK2 [1]) was “caused only negligible phosphorylation of the ERKs”, the “activity/phosphorylation of JNK in neutrophils in suspension” value (JNK) was “neither TNF nor TNF70-80 stimulated the activity of either JNK or ERK” and the “activity/dual phosphorylation of ERK in neutrophils in suspension” value (ERK1/ERK2 [2]) was “neither TNF nor TNF70-80 stimulated the activity of either JNK or ERK”. The “activity of p38 in neutrophils in suspension” value (p38) was “enhanced the activity of p38”, the “nuclear translocation of NFκB in neutrophils” value (NFκB; TNF70-80 10 μM, 30 min or 1 h) was “caused the translocation of NFκB to the nucleus” and the “degradation of IκB” value (NFκB; data not shown) was “caused the degradation of IκB”. For the same substance, the “GCKR/GLK activity in adherent neutrophils” value (GCKR/GLK) was “poor at stimulating GCKR/GLK activity”, the “ASK-1 autophosphorylation in HEK293T cells” value (ASK-1) was “did not affect the level of ASK-1 phosphorylation” and the “binding to mutant receptor peptide M4 (truncated receptor)” value [3] was “binds to the truncated receptor”. The “concentration that equates to 1000 U/ml of TNF in ability to stimulate nitric oxide production in macrophage” value (macrophage) was 5.0 µg/mL.
